According to PubChem BioAssay (NCI):
Several values for one entry are separate records, joined by “and”; a condition that tells them apart may be missing. Equal values may be shown once.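 How tested: cells in 96-well plates exposed to compound for 48 hours at five concentrations. GI50 = concentration required for 50% inhibition of growth. TGI marks complete inhibition of growth.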

Experiments:
Experiment in all cases: DTP human tumour cell line panel, 48 h
DLD-1 colon = system: DLD-1 colon
HL-60(TB) leukemia = system: HL-60(TB) leukemia
HOP-62 NSCLC = system: HOP-62 NSCLC
KM20L2 colon = system: KM20L2 colon
SNB-19 CNS = system: SNB-19 CNS
UO-31 renal = system: UO-31 renal
ACHN renal = system: ACHN renal
DMS 114 small cell lung = system: DMS 114 small cell lung
LXFL 529 NSCLC = system: LXFL 529 NSCLC
MOLT-4 leukemia = system: MOLT-4 leukemia
UACC-257 melanoma = system: UACC-257 melanoma
HS 578T breast = system: HS 578T breast

Structure (SMILES) | TGI (DLD-1 colon) [µM] | TGI (HL-60(TB) leukemia) | TGI (HOP-62 NSCLC) | TGI (KM20L2 colon) [µM] | TGI (SNB-19 CNS) | TGI (UO-31 renal) [µM] | TGI (ACHN renal) | TGI (DMS 114 small cell lung) [µM] | TGI (LXFL 529 NSCLC) [µM] | TGI (MOLT-4 leukemia) | TGI (UACC-257 melanoma) | TGI (HS 578T breast) [µM] | GI50 (ACHN renal) [nM] | GI50 (HL-60(TB) leukemia) [nM] | GI50 (HOP-62 NSCLC) [nM] | GI50 (MOLT-4 leukemia) [nM] | GI50 (SNB-19 CNS) [µM] | GI50 (UACC-257 melanoma) [µM]
O=c1ccn([C@@H]2C=C(CO)[C@@H](O)[C@H]2O)c(=O)[nH]1 | > 625 | > 625 µM | > 625 µM | > 625 | > 625 µM | > 625 |  |  |  |  |  |  |  |  |  |  |  | 
O=C(/C=C/CC(O)(c1ccccc1)c1ccccc1)Nc1ccccc1Cl | > 100 | > 100 µM | > 100 µM | > 100 | > 100 µM | > 100 | > 100 µM | > 100 | > 100 | > 100 µM | > 100 µM |  |  |  |  |  |  | 
CCc1nc2c([nH]1)C(=O)c1ccccc1C2=O | > 100 | 94.7 µM | > 100 µM |  | > 100 µM | > 100 | > 100 µM | 70.6 |  | > 100 µM | 78 µM |  |  |  |  |  |  | 
COC(=O)[C@@H]1[C@H]2CC[C@]3(C)[C@@H](OC(C)=O)CC[C@H]3[C@@H]2CC[C@H]1C1(C)SCCS1 |  | 36.8 µM | 53.6 µM |  | > 100 µM | > 100 | > 100 µM |  |  | 59.3 µM | 53.3 µM | 74.4 |  |  |  |  |  | 
COc1ccc(C(=O)/C=C/c2ccc(OCCCCCCCCCCOc3ccc(/C=C/C(=O)c4ccc(OC)c(OC)c4)cc3)cc2)c(OC)c1 |  | > 100 µM | > 100 µM |  | > 100 µM | > 100 | > 100 µM |  |  | > 100 µM | > 100 µM | > 100 |  |  |  |  |  | 
O=C(CCl)Nc1ccc(C(=O)N/N=C/c2ccc(Cl)cc2)cc1 | 4.93 | 6.51 µM and 3.77 µM | 3.45 µM and 14.7 µM | 27.4 | 5.74 µM and 20.1 µM | 10.6 | 6.57 µM and 9.22 µM | 2.94 | 3.2 | 6.28 µM and 5.35 µM | 3.73 µM and 25 µM | 6.7 | 2920 | 1190 | 1740 | 2440 | 3.09 | 12.2
COc1cc2c3cc1Oc1cc(ccc1O)C[C@@H]1c4c(cc(OC)c(O)c4Oc4ccc(cc4)C[C@@H]3[N+](C)(C)CC2)CC[N+]1(C)C |  | > 100 µM | > 100 µM |  | > 100 µM | > 100 | > 100 µM |  |  | > 100 µM | > 100 µM | 85.1 |  |  |  |  |  | 
CC1CCc2sc3[nH]c(=S)n(C)c(=O)c3c2C1 (stereo unspecified) |  | 26.2 µM | > 100 µM |  | > 100 µM | 33.6 | > 100 µM |  |  | > 100 µM | > 100 µM | > 100 |  |  |  |  |  | 
O=C1CN(c2ccccc2)C(=O)C1C(=O)Nc1ccc(Cl)c(Cl)c1 (stereo unspecified) | 23 | 9.66 µM | 6.33 µM | 16.8 | 17.2 µM | 11.7 | 14.8 µM | 13.3 | 14.3 | 11.7 µM | 22.7 µM |  |  |  |  |  |  | 
CC12CCC(=O)[C@@]1(C)CCCC2=O (stereo partly specified) |  | > 100 µM | > 100 µM |  | > 100 µM | > 100 | > 100 µM |  |  | > 100 µM | > 100 µM | > 100 |  |  |  |  |  | 
C=CCN(c1cc(OC)c2[nH]c(C(=O)O)c(C)c2c1[N+](=O)[O-])S(C)(=O)=O |  | > 100 µM | > 100 µM |  | > 100 µM | > 100 | > 100 µM |  |  | > 100 µM | > 100 µM | > 100 |  |  |  |  |  | 
O=C1CCCC2=C1CC1=C(CCCC1=O)N2c1ccc(-c2ccccc2)cc1 |  | > 100 µM | > 100 µM |  | > 100 µM | > 100 | > 100 µM |  |  | > 100 µM | > 100 µM | > 100 |  |  |  |  |  | 
